Like-named read-outs stand apart in the source and are kept apart here.
What was measured:
[1] = tested on: IDH2 mutant cell line TF1-R140Q; test: Hemoglobinization / EPO induced differentiation assay with flow cytometry; assay type: cell-based; details: EPO induction 7 days
Procedure: (§1) Cells were plated at a density of 0.2e^6 cells/ml of 2 ml culture in 6 well plates.
FIG. 91 provides the dosing schedules used in this study.
(§2) TF1 cells were cultured in the following media: RPMI containing HEPES and L-glutamine, 10% FBS, Pen/Strep, G418 (final conc 500 μg/ml), and GM-CSF (final conc 5 ng/ml). The cells were cultured for 7 days, with or without compound treatment as described in FIG. 91.
(§3) For the hemoglobinization assay, TF1 cells were washed three times with PBS to remove residual GM-CSF then plated at (100,000 cells/ml). Cells were then induced to differentiate using EPO (2 unit/ml). Induction continued for 7 days with changing media on 4th day and adding media with fresh EPO. The cell pellets were collected and imaged for hemoglobinization content (as a surrogate for differentiation into blood lineage). Cells were pelleted, washed, stained with a panel of antibodies and analyzed by flow cytometry, using the following antibodies: […]

[2] = Dynamic vapor sorption (DVS) of solid forms; assay type: physicochemical; details: relative humidity increased from about 0% to about 90% RH
Procedure: In certain embodiments, Form A is characterized by dynamic vapor sorption analysis. […] In certain embodiments, Form A comprises less than 0.1% water as determined in a coulometric Karl Fischer (KF) titrator equipped with an oven sample processor set at 225° C.
In certain embodiments, Form B is characterized by dynamic vapor sorption analysis. […] In certain embodiments, Form B comprises less than 0.1% water as determined in a coulometric Karl Fischer (KF) titrator equipped with an oven sample processor set at 225° C.
In certain embodiments, Form C is characterized by dynamic vapor sorption analysis. […] In certain embodiments, Form C comprises less than 0.1% water as determined in a coulometric Karl Fischer (KF) titrator equipped with an oven sample processor set at 225° C.

[3] = physchem; assay type: physicochemical
Source text: “Compound 1, Form C” or “Form C” or “API”” in the Examples herein refers to polymorph Form C of 2-(4-chlorophenyl)-N-((2-(2,6-dioxopiperidin-3-yl)-1-oxoisoindolin-5-yl)methyl)-2,2-difluoroacetamide. “Compound 1, Form A” or “Form A” in the Examples herein refers to polymorph Form A of 2-(4-chlorophenyl)-N-((2-(2,6-dioxopiperidin-3-yl)-1-oxoisoindolin-5-yl)methyl)-2,2-difluoroacetamide.

[4] = patients, literature value; read-out: clinical Cmax; cited from earlier work
[5] = tested on: AML cell lines; test: In vitro combination studies, CellTitre-Glo cell viability (Bliss, Loewe, HSA, CES synergy analysis); details: FLT3 and JAK inhibitors in combination with Compound 1 in MOLM-13 and NOMO-1 cell lines
Procedure: where EA and EB represent the effect of each single agent and EAB represents the effect of the combination at a given dose.
All data was analyzed using the CES equation:
In cases where single agent dose response fit a Hill slope, the CES analysis was compared to Loewe, Bliss, and HSA models.

[6] = tested on: IL3 independent JAK2 V617F BaF3 cells; test: Combination studies with JAK2 inhibitors in engineered BaF3 cells, CellTitre-Glo after 3 days; assay type: cell-based; details: compared to the IL3 dependent lines
Procedure: Everolimus was included as a control. The cell viability was then measured by CellTitre-Glo® after 3 days.

[7] = tested on: JAK2V617F AML cell lines HEL, SET-2, MUTZ-8; test: Combination studies with JAK2 inhibitors in AML cell lines, CellTitre-Glo after 3 days; assay type: cell-based
Procedure: The cell viability was measured by CellTitre-Glo® after 3 days as described elsewhere herein.

[8] = tested on: ML-2; test: In vitro combination studies, CellTitre-Glo cell viability; details: ML-2; in combination with Compound 1
[9] = tested on: HL-60; test: as above; details: HL-60; in combination with Compound 1
[10] = tested on: NOMO-1; test: as above; details: NOMO-1; in combination with Compound 1
[11] = tested on: HNT-34; test: as above; details: HNT-34; in combination with Compound 1
[12] = tested on: F-36-P; test: as above; details: F-36-P; in combination with Compound 1
[13] = tested on: OCT-AML-3; test: as above; details: OCI-AML-3; in combination with Compound 1
[14] = tested on: OCI-AML-2; test: as above; details: OCI-AML-2; in combination with Compound 1
[15] = tested on: MV-4-11; test: as above; details: MV-4-11; in combination with Compound 1
[16] = tested on: KG-1; test: as above; details: KG-1; in combination with Compound 1
[17] = tested on: MOLM-13; test: as above; details: MOLM-13; in combination with Compound 1
[18] = GA0087 PDX model ex vivo 3D methylcellulose CellTiter-Glo cell viability assay (IC50, matrix combination, Combination Index)
Procedure: (§4) Materials and Methods: The stomach cancer cell line GA0087 was used in this study. […] Culture media was purchased from GIBCO or Sigma, USA.
(§5) Everolimus was obtained from Selleck. Cisplatin was used as a reference drug, and was obtained from Hospira Australia pty Ltd.
(§6) PDX tumor models were maintained at Crownbio HuPrime animal facility. Tumor growth was monitored weekly. Tumor volumes were measured in two dimensions using a caliper, and the volume was expressed in mm^3 using the formula: V=0.5 a×b^2 where a and b are the long and short diameters of the tumor, respectively. • 2. Mouse xenografts at tumor volume around 800 mm^3 were housed with sterile surgical tools and tumor tissue was minced into tiny pieces with scissors in small amount of PBS on a new tissue culture plate. • 3. The cell suspension was filtered through Falcon cell strainer. The nylon mesh was washed 3-5 times with PBS. • 4. The cell suspension was centrifuged at 1000 rpm for 5 minutes and the pellet was washed with PBS and centrifuged again. • 5. Red blood cells were removed using red blood cell lysis buffer. • 6. The cell suspension was centrifuged at 1000 rpm for 5 minutes and the pellet was washed with PBS and centrifuged again. • 7. The cell pallet was re-suspended with appropriate cell culture media for different cells. • 8. Cells were counted with Countstar by trypan blue exclusion.
(§7) Day −1: Cell Plating • 1. The cells were harvested during the logarithmic growth period. The harvested cells were cultured with appropriate cell media and centrifuged at 1000 rpm for 3 minutes. […] (Cell concentration was adjusted according to the data base or density optimization assay). • 3. 3.5 mL of cell suspension was mixed with 6.5 mL of 1% methylcellulose. […] 90 μL cell suspensions were added to 96-well plates according to plate map with final cell density. Two duplicate plates were set up: one for day 0 reading (T0) and the other was cultured in incubator for reading at the end point.
(§8) Day 0: T0 Plate Reading and Compound Treatment • 5.10 μL culture medium was added to T0 plate in each well for T0 reading. • 6.100 μl CellTiter-Glo® Reagent was added to each well. • 7. The contents were mixed for 2 minutes on an orbital shaker to facilitate cell lysis. • 8. The plates were allowed to incubate at room temperature for 10 minutes to stabilize luminescent signal. • 9. A backseal black sticker was placed to the bottom of each plate. • 10. The luminescence was read using EnVision Multi Label Reader. • 11.
(§9) The solutions were stored at −20° C. […] The response score was calculated by normalizing to DMSO control. The combination index (CI) was calculated using Chou and Talalay method, wherein a CI of less than 1 indicates synergy. Cisplatin was used as control in the single compound dose response, but was not included in the combination test.
(§10) After drug incubation, pictures for representative wells were taken using a phase contrast microscope. • 13. 100 μL CellTiter-Glo® Reagent was added to each well. • 14. Contents were mixed for 2 minutes on an orbital shaker to facilitate cell lysis. • 15. The plates were allowed to incubate at room temperature for 10 minutes to stabilize luminescent signal. • 16. Backseal black sticker was placed to the bottom of each plate. • 17. Luminescence was recorded using EnVision Multi Label Reader.
(§11) In order to calculate IC50, a dose-response curve was fitted using nonlinear regression model with a sigmoidal dose response. The formula of surviving rate is shown below, and the IC50 was automatically produced by GraphPad Prism 5.0.
(§12) The surviving rate (%)=(LumTest article−LumMedium control)/(LumNone treated−LumMedium control)×100%.

[19] = tested on: stomach cancer cell line GA0087; test: as above
Procedure: as §4, §5, §6, §7, §8, §9, §10, §11, §12

[20] = tested on: IDH2 mutant cell line TF1-R140Q; test: Proliferation (total, HSC and progenitor cell count) in the TF1 assay; assay type: cell-based
Procedure: as §1, §2, §3

[21] = tested on: GSPT1 and mTORC1 effectors in BON cells; test: Western blot of BON cell lysates after 120 h treatment; assay type: cell-based
Procedure: BON cells were cultured in DMEM: F12K media containing 10% fetal bovine serum and penicillin/streptomycin antibiotics. […] Cells were harvested and probed with antibodies for western blots and imaged using a Li-Cor Odyssey imaging system. All total and phosphorylated antibodies were obtained from Cell Signaling Technology.

[22] = tested on: primary human tumor xenograft model GA0087; test: HuPrime gastric cancer xenograft GA0087 model, in vivo efficacy; design: species or system female BALB/c nude mice; details: single agent, 1.25 mg/kg and 5 mg/kg
Source text: Tumor fragments from stock mice were harvested and used for inoculation into mice. Each mouse was inoculated subcutaneously at the right flank with primary human tumor xenograft model GA0087 tumor fragment (P7, 2-3 mm in diameter) for tumor development. […] After tumor inoculation, the animals were checked daily for morbidity and mortality. At the time of routine monitoring, the animals were checked for any effects of tumor growth and treatments on normal behavior such as mobility, food and water consumption, body weight gain/loss, eye/hair matting and any other abnormal effect. Death of euthanized mouse was recorded. All groups were terminated on Day 40. Three tumors in each group, with tumor volume near median of each group were collected. Plasma of the same mice were collected. For comparison among three or more groups, one-way ANOVA was performed followed by multiple comparison procedures. All data were analyzed using SPSS 18.0. P values <0.05 is considered to be statistically significant.

[23] = tested on: GSPT1 expression, mTOR activation, Mcl-1 expression and Caspase-3 cleavage in AML cells; test: Immunoblot analysis of AML cells treated with Compound 1 and everolimus; assay type: cell-based
Source text: Whole cell extracts were collected and subjected to immunoblot analysis.

[24] = tested on: human QGP1 pancreatic somatostatinoma xenografts
Procedure: Treatment began on Day 1 in nine groups of mice (n=10) with established subcutaneous QGP1 tumors. […] Tumors were measured using calipers twice each week to the end of the study on Day 52. Three tumors at or near the group median tumor volume 2000 mm^3 endpoint were sampled from each group.
Treatment efficacy was based on tumor growth inhibition (TGI), defined as the difference between the final (Day 52) median tumor volumes (MTVs) of treated and control mice. The results were analyzed utilizing the Mann-Whitney U-test, and were deemed statistically significant at P≤0.05. Drug tolerability was assessed by body weight measurements and by frequent observation of treated animals.

[25] = read-out: Absolute IC50, GA0087-1st experiment
[26] = read-out: Absolute IC50, GA0087-2nd experiment

## Nc1nc(Nc2ccnc(C(F)(F)F)c2)nc(-c2cccc(C(F)(F)F)n2)n1 [Compound 2, 6-(6-(trifluoromethyl)pyridin-2-yl)-N^2-(2-(trifluoromethyl)pyridin-4-yl)-1,3,5-triazine-2,4-diamine]
[1]
  hemoglobin expression: increase in hemoglobin expression

## O=C1CCC(N2Cc3cc(CNC(=O)C(F)(F)c4ccc(Cl)cc4)ccc3C2=O)C(=O)N1 (stereo not shown) [Form A, 2-(4-chlorophenyl)-N-((2-(2,6-dioxopiperidin-3-yl)-1-oxoisoindolin-5-yl)methyl)-2,2-difluoroacetamide]
[2]
  water uptake (DVS): about 1.2 % w/w

## O=C1CCC(N2Cc3cc(CNC(=O)C(F)(F)c4ccc(Cl)cc4)ccc3C2=O)C(=O)N1 (stereo not shown) [Form B, 2-(4-chlorophenyl)-N-((2-(2,6-dioxopiperidin-3-yl)-1-oxoisoindolin-5-yl)methyl)-2,2-difluoroacetamide]
[2]
  water uptake (DVS): about 1.4 % w/w

## O=C1CCC(N2Cc3cc(CNC(=O)C(F)(F)c4ccc(Cl)cc4)ccc3C2=O)C(=O)N1 (stereo not shown) [Form C, 2-(4-chlorophenyl)-N-((2-(2,6-dioxopiperidin-3-yl)-1-oxoisoindolin-5-yl)methyl)-2,2-difluoroacetamide]
[3]
  thermodynamic stability among the crystal forms: most thermodynamically stable anhydrate
[2]
  water uptake (DVS): about 0.6 % w/w

## C[C@H](Nc1cc(-c2cnn(C)c2)cc(Nc2cnccn2)n1)c1ccc(F)cc1 [NS-018]
[4]
  Cmax: 2570 nM
[5]
  Synergy: Yes
[6]
  single agent sensitivity: more sensitive
[7]
  cell viability, single agent: inhibit cell viability

## FC(F)(F)c1ccc(CNc2ccc(Cc3c[nH]c4ncc(Cl)cc34)cn2)cn1 [Pexidartinib]
[8]
  Synergy analysis for combinations with Compound 1: No
[5]
  Synergy: Yes
[9]
  Synergy analysis for combinations with Compound 1: No
[10]
  Synergy analysis for combinations with Compound 1: No
[11]
  Synergy analysis for combinations with Compound 1: No
[12]
  Synergy analysis for combinations with Compound 1: No
[13]
  Synergy analysis for combinations with Compound 1: No
[14]
  Synergy analysis for combinations with Compound 1: No
[15]
  Synergy analysis for combinations with Compound 1: Yes
[16]
  Synergy analysis for combinations with Compound 1: No
[17]
  Synergy analysis for combinations with Compound 1: Yes

## N.N.[Cl][Pt][Cl] [cisplatin]
[18]; [25]
  IC50: 3.35 µM
[18]; [26]
  IC50: 3.53 µM
[18]; read-out: Relative IC50, GA0087-1st experiment
  IC50: 3.17 µM
[18]; read-out: Relative IC50, GA0087-2nd experiment
  IC50: 3.3 µM
[19]; GA0087-1st experiment
  Maximal Inhibition: 98.73%
[19]; GA0087-2nd experiment
  Maximal Inhibition: 98.48%

## CC(C)(O)CNc1nc(Nc2ccnc(C(F)(F)F)c2)nc(-c2cccc(C(F)(F)F)n2)n1 [enasidenib, reference compound]
[1]
  hemoglobin expression: increase in hemoglobin expression
[20]
  proliferation (total, HSC and progenitor cell count): mild growth promoting effect

## CO[C@H]1C[C@@H]2CC[C@@H](C)[C@@](O)(O2)C(=O)C(=O)N2CCCC[C@H]2C(=O)O[C@H]([C@H](C)C[C@@H]2CC[C@@H](OCCO)[C@H](OC)C2)CC(=O)[C@H](C)/C=C(\C)[C@@H](O)[C@@H](OC)C(=O)[C@H](C)C[C@H](C)/C=C/C=C/C=C/1C [everolimus, reference compound]
[8]
  Synergy analysis for combinations with Compound 1: Yes
[21]
  effect on mTORC1 effectors (p4EBP1, phosphorylation of S6): dramatically decreased phosphorylation of S6 and phosphorylation of 4EBP1
[6]
  single agent sensitivity: more sensitive
[9]
  Synergy analysis for combinations with Compound 1: No
[10]
  Synergy analysis for combinations with Compound 1: No
[11]
  Synergy analysis for combinations with Compound 1: No
[12]
  Synergy analysis for combinations with Compound 1: Yes
[13]
  Synergy analysis for combinations with Compound 1: Yes
[14]
  Synergy analysis for combinations with Compound 1: Yes
[22]
  anti-tumor activity: moderate anti-tumor activity
[15]
  Synergy analysis for combinations with Compound 1: Yes
[23]
  GSPT1 expression/degradation, Mcl-1 loss, Caspase-3 cleavage: minimal effect
  activation of the mTOR pathway (phosphorylation of S6K1 and 4E-BP1): significantly blocked the activation of the mTOR pathway
[18]; [25]
  IC50: 0.0061 µM
[18]; [26]
  IC50: 0.0075 µM
[19]; GA0087-1st experiment
  Maximal Inhibition: 73.15%
[19]; GA0087-2nd experiment
  Maximal Inhibition: 72.80%
[24]; 3 mg/kg i.p. qd x 21, Day 52
  tumor growth inhibition: 41%
[24]; 10 mg/kg i.p. qd x 21, Day 52
  tumor growth inhibition: 39%
[16]
  Synergy analysis for combinations with Compound 1: No
[17]
  Synergy analysis for combinations with Compound 1: Yes

## N#CCNC(=O)c1ccc(-c2ccnc(Nc3ccc(N4CCOCC4)cc3)n2)cc1 [momelotinib, reference compound]
[5]
  Synergy: Yes
[6]
  single agent sensitivity: more sensitive

## N#CC[C@H](C1CCCC1)n1cc(-c2ncnc3[nH]ccc23)cn1 [ruxolitinib]
[4]
  Cmax: 500 to 1000 nM

Source: patent publication US20190030018A1 (Celgene Corporation, priority 2017, published 2019)
